Test results as given in patent US7915291B2, “Hepatitis C virus inhibitors” (Bristol-Myers Squibb Company, priority 2002, dated 2011).
Like-named read-outs stand apart in the source and are kept apart here.

Tests used:
HCV = conditions: cited from earlier work
[1] = target: HCV NS3/4A protease complex, BMS strain (UniProt P27958, C1454S/C1711G, species not given/STRAIN_BMS); test: Recombinant HCV NS3/4A protease complex FRET peptide assay (BMS strain); type: biochemical, HCV genotype 1a
Method in brief: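 Percent inhibition taken from the linear-range fluorescence slope relative to uninhibited control, read kinetically for about 15 min at 25° C. Enzyme (2-3 nM, BMS NS3/4A complex, lysine-tailed, Ni-NTA purified) met compound for 1 min before 2 μM FRET depsipeptide substrate started cleavage.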

[2] = system: HCV replicon in Huh7 cells; test: HCV replicon cell-based assay; parameters: species or system HCV strain 1B; conditions: Hepatitis C virus, Huh-7; HCV replicon, Huh7 cells; read-out: EC50 range
[3] = NS3/4A BMS strain; read-out: IC50 range

## alpha-interferon and ribavirin
HCV; HCV infected patients, combination therapy
  sustained efficacy, share of patients: 40%

## pegylated alpha-interferon
HCV; HCV patients, monotherapy, recent clinical results
  clinical comparison as monotherapy: superior to unmodified alpha-interferon

## C=C[C@@H]1C[C@]1(NC(=O)[C@@H]1C[C@@H](Oc2nccc3cc(OC)ccc23)CN1C(=O)[C@@H](NC(=O)OC(C)(C)C(F)(F)F)C(C)(C)C)C(=O)NS(=O)(=O)C1CC1 [Compound 155]
[1]; [3]
  IC50: < 100 nM
[2]
  EC50: < 100 nM

## C=CC1C[C@]1(NC(=O)[C@@H]1C[C@@H](COc2ccnc(-c3cccs3)c2)CN1C(=O)[C@@H](NC(=O)OC)C(C)(C)C)C(=O)NS(=O)(=O)C1CC1 (stereo partly shown) [Compound 350]
[1]; read-out: IC50 range; NS3/4A BMS strain
  IC50: 100 to 1000 nM
[2]
  EC50: 10000 to 100000 nM

## C=CC1C[C@]1(NC(=O)[C@@H]1C[C@@H](Oc2nccc3cc(C(C)C)ccc23)CN1C(=O)[C@@H](NC(=O)OC(C)(C)C)C(C)(C)C)C(=O)NS(=O)(=O)C1CC1 (stereo partly drawn) [Compound 190, BOCNH-P3(L-tert-BuGly)-P2[(4R)-(6-isopropyl isoquinolin-1-oxo)-S-proline]-P1(1R,2S Vinyl Acca)-CONHSO2-Cyclopropane]
[1]; [3]
  IC50: < 100 nM
[2]
  EC50: 100 to 1000 nM

## C=CC1C[C@]1(NC(=O)[C@@H]1C[C@@H](Oc2nnc(OC(C)C)c3ccccc23)CN1C(=O)[C@@H](NC(=O)OC(C)(C)C)C(C)(C)C)C(=O)NS(=O)(=O)C1CC1 (stereo partly shown) [Compound 199]
[1]; [3]
  IC50: < 100 nM
[2]
  EC50: 100 to 1000 nM

## C=C[C@@H]1C[C@]1(NC(=O)[C@@H]1C[C@@H](Oc2nccc3cc(OC)c(F)cc23)CN1C(=O)[C@@H](NC(=O)OC(C)(C)C)C(C)(C)C)C(=O)NS(=O)(=O)C1CC1 [Compound 261]
[1]; [3]
  IC50: < 100 nM
[2]
  EC50: < 100 nM

## C=CC1C[C@]1(NC(=O)[C@@H]1C[C@@H](Oc2nc(-c3cccnc3)cc3cc(OC)ccc23)CN1C(=O)[C@@H](NC(=O)OC(C)(C)C)C(C)(C)C)C(=O)NS(=O)(=O)C1CC1 (stereo partly shown) [Compound 328]
[1]; [3]
  IC50: < 100 nM
[2]
  EC50: < 100 nM

## C=C[C@@H]1C[C@]1(NC(=O)[C@@H]1C[C@@H](Oc2nccc3cc(OC)ccc23)CN1C(=O)[C@@H](NC(=O)N(C)[C@H](C(=O)OC)C(C)C)C(C)(C)C)C(=O)NS(=O)(=O)C1CC1 [Compound 154]
[1]; [3]
  IC50: < 100 nM
[2]
  EC50: 100 to 1000 nM

## C=CC1C[C@]1(NC(=O)[C@@H]1C[C@@H](COc2cccc(-c3ccoc3)n2)CN1C(=O)[C@@H](NC(=O)OC)C(C)(C)C)C(=O)NS(=O)(=O)C1CC1 (stereo partly shown) [Compound 355]
[1]; [3]
  IC50: 100 to 1000 nM
[2]
  EC50: 10000 to 100000 nM

## C=CCCCCC[C@H](NC(=O)OC(C)(C)C)C(=O)N1C[C@H](Oc2ccnc3cc(OC)ccc23)C[C@H]1C(=O)N[C@]1(C(=O)NS(=O)(=O)C2CC2)C[C@H]1C=C [Compound 377]
[1]; [3]
  IC50: < 100 nM
[2]
  EC50: 100 to 1000 nM

## CC[C@@H]1C[C@]1(NC(=O)[C@@H]1C[C@@H](Oc2nccc3cccc(C)c23)CN1C(=O)[C@@H](NC(=O)OC(C)(C)C)C(C)(C)C)C(=O)NS(=O)(=O)C1CC1 [Compound 297]
[1]; [3]
  IC50: 100 to 1000 nM
[2]
  EC50: 1000 to 10000 nM
